Earlier results in US7744929B2, “Botanical drug compositions for treatments of liver and immunological disorders” (priority 2003, dated 2010).

Tested on: HCV

NC(=O)c1ncn([C@@H]2O[C@H](CO)[C@@H](O)[C@H]2O)n1 [ribavirin]
increase of the sustained response rate (ribavirin added to interferon): two- to three fold
effect on HCV (ribavirin by itself): little effect
